Results: paper PMC12249833, “Discovery and Characterization of Novel Non-Hydroxamate HDAC11 Inhibitors” (International Journal of Molecular Sciences, 2025)
Like-named read-outs stand apart in the source and are kept apart here. Blank lines part the entries; values can stand above or below the molecule they belong to.

Columns and labels:
HDAC11 [1] = target: T1, HDAC11 (Homo sapiens, UniProt Q96DB2); test: High-throughput screening, residual HDAC11 enzyme activity; type: biochemical; conditions: final compound concentration 10 µM
T1 construct: His6 (N); SUMO (N); made in house; host or cells: E. coli BL21 (DE3)
T1 sequence (Q96DB2 1-347): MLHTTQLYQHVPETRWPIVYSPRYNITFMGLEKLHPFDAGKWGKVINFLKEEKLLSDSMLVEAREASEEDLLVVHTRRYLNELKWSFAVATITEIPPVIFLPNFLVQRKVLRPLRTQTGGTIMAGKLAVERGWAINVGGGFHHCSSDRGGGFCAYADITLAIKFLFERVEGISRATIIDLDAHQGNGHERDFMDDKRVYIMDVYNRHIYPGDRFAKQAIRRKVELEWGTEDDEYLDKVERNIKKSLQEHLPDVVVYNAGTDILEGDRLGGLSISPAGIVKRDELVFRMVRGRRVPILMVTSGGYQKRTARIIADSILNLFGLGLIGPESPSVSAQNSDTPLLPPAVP

HDAC11 [2] = target: T1, HDAC11; test: HDAC11 fluorimetric enzyme activity assay (Boc-Lys(TFA)-AMC), dose-response; type: biochemical
HDAC11 [3] = target: T1, HDAC11; test: Rapid dilution experiment (reversibility of binding); type: biochemical; conditions: 10× IC50, 100-fold rapid dilution, recovery of enzyme activity
Method: The inhibitors were evaluated for reversible inhibition in an enzyme activity assay. […] After equilibration for 1 h at 30 °C, this solution is diluted 100-fold directly into 80 μM of the substrate Boc-Lys(TFA)-AMC. After a further hour of incubation, the reaction was stopped as indicated in the enzyme activity assay section.

HDAC11 [4] = target: T1, HDAC11; test: Time-dependent IC50 / pre-incubation one-step enzyme assay; type: biochemical; conditions: pre-incubation for different times up to 60 min
HDAC8 = target: T2, HDAC8 (Homo sapiens, UniProt Q9BY41); test: Isoenzyme selectivity, HDAC8 dose-response; type: biochemical; conditions: means ± standard deviation (n = 3)
T2 sequence (Q9BY41 1-377): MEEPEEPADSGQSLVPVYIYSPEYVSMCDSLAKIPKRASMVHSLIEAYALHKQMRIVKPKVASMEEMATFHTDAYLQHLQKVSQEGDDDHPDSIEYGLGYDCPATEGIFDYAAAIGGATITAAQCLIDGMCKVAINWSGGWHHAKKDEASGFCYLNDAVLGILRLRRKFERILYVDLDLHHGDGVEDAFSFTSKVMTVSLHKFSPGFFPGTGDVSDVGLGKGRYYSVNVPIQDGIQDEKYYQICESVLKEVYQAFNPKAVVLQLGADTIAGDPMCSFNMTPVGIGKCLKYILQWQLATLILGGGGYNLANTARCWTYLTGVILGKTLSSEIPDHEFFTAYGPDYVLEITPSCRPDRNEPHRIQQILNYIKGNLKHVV

HDAC6 = target: T3, HDAC6 (Homo sapiens, UniProt Q9UBN7); test: Isoenzyme selectivity, HDAC6 dose-response; type: biochemical; conditions: means ± standard deviation (n = 3)
T3 sequence (Q9UBN7 1-1215): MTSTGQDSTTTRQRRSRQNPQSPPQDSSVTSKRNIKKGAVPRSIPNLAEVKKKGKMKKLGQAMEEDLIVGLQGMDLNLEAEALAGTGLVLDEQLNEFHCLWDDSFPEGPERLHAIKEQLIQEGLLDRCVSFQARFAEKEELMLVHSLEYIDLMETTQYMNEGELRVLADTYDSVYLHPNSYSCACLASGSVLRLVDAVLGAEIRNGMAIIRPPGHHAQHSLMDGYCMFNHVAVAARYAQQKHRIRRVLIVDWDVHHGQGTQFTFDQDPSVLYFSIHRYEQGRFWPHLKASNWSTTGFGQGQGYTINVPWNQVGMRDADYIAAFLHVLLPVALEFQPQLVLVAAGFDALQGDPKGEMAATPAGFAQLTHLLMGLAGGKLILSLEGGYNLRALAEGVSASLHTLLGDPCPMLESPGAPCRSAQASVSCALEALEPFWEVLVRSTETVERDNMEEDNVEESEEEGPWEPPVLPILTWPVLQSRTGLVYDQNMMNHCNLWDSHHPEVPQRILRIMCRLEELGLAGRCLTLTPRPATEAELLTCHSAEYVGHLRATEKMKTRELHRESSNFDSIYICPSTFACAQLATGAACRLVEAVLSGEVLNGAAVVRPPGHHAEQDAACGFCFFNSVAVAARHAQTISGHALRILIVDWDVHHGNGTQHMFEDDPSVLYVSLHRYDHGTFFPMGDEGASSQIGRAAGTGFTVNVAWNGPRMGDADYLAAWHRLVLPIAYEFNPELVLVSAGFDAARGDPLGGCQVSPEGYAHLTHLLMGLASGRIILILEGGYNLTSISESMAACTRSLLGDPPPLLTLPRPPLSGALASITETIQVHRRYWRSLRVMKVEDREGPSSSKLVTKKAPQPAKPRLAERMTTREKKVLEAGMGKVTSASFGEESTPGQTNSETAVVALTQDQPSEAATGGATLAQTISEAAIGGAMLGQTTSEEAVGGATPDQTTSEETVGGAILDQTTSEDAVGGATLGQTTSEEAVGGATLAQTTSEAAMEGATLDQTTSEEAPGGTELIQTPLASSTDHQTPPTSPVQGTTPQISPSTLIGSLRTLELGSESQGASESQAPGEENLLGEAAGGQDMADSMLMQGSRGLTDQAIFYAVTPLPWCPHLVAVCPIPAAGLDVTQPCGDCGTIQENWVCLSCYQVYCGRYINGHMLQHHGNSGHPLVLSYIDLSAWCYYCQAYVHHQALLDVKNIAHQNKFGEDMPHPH

HDAC1 = HDAC1 (Homo sapiens, UniProt Q13547); test: Isoenzyme selectivity, HDAC1 dose-response; type: biochemical; conditions: means ± standard deviation (n = 3)
HEK293 normal cells = test: Cytotoxicity testing (XTT) against HEK293; type: cell-based; conditions: HEK293, up to 100 uM, 24h
Method: (§1) Figure S10: Cytotoxicity testing of indicated compound against HEK293 cell. 5000 HEK293 cells were seeded in 96-Well plates. After 48h Inkubationszeit at 37°C and 5% CO2 in DMEM supplemented with 10% FBS and 1% Pen/Strep. A serial 1:2 dilution starting with 100 uM of compounds was added and incubated for a further 24h. XTT reagent was added and incubated for 4h. Afterwards the absorbance was measure at 450 nm and 600 nm. Data points are mean values ± standard error, n ≥ 6.
(§2) 9SPC045H03 in the enzyme activity assay is not due to compound-substrate interference. […]

HDAC4 = HDAC4 (Homo sapiens, UniProt P56524); test: Isoenzyme selectivity, HDAC4 dose-response; type: biochemical; conditions: means ± standard deviation (n = 3)
[5] = Cytotoxicity testing (XTT) against HEK293; type: cell-based; conditions: human, HEK293 cells, HEK293, 100 µM compound concentration, read-out: Cell viability
Method: as §1, §2

HDAC11 [6] = target: T1, HDAC11; parameters: method as in PMID 31264832; conditions: 50 µM; cited from earlier work
HDAC11 [7] = target: T1, HDAC11; conditions: Figure 1 / text; read-out: HDAC11 IC50 of known inhibitors; cited from earlier work
[8] = means ± standard deviation (n = 3), read-out: IC50 against HDAC11

HDAC1, sequence (Q13547 whole entry, species assumed): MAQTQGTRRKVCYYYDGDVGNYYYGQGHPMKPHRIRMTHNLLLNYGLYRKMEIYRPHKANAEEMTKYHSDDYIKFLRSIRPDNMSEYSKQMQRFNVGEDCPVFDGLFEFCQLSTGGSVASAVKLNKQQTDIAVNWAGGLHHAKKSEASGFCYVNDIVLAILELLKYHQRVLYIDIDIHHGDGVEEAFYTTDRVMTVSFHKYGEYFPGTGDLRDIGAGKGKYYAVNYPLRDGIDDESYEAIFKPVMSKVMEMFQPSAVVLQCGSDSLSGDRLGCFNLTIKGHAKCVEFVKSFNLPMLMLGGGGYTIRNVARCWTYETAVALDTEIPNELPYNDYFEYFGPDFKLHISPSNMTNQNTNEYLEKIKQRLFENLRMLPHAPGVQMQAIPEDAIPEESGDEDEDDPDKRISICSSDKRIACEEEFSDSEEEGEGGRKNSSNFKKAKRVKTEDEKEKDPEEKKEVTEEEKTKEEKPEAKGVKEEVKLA
HDAC4, sequence (P56524 whole entry, species assumed): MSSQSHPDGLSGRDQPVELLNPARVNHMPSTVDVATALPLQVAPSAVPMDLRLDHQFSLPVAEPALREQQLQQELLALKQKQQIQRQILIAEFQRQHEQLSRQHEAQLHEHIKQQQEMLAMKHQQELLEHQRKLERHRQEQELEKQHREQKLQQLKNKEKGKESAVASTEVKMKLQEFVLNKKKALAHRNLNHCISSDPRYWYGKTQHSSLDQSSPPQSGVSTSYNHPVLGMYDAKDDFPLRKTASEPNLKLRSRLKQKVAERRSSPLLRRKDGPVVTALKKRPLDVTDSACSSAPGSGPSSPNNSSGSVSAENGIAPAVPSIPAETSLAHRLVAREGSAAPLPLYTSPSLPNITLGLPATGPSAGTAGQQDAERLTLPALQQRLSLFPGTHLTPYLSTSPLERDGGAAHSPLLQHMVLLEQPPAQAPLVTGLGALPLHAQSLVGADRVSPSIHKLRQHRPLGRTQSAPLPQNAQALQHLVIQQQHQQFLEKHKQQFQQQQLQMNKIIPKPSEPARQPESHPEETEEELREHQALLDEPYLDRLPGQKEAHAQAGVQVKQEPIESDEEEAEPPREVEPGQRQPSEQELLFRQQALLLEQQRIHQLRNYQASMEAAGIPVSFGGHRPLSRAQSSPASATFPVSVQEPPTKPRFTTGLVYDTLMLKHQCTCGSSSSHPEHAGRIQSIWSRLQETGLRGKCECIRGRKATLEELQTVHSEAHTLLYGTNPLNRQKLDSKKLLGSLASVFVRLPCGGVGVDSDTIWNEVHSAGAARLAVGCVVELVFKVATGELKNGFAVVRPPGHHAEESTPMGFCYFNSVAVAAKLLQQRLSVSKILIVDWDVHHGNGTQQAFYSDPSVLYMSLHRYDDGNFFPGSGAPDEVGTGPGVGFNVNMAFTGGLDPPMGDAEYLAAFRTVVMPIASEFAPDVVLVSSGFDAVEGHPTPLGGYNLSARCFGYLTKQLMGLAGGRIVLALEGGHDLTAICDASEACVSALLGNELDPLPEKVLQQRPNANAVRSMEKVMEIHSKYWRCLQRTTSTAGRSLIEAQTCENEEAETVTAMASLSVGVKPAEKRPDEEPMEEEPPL

- Res. HDAC activity (residual HDAC11 activity) (HDAC11 [1]): 97%
Structure (SMILES): O=C(C=Cc1ccc(N=Cc2ccc([N+](=O)[O-])cc2)cc1)OCCc1ccccc1 [9SPC056H05]

- IC50 (HDAC11 [2]; [8]): 1500 nM
- Reversibility of binding to HDAC11 (HDAC11 [3]): reversible binding
- Res. HDAC activity (residual HDAC11 activity) (HDAC11 [1]): 46%
- Time-dependence of HDAC11 inhibition (HDAC11 [4]): no time-dependent inhibition
- IC50 (HDAC8): 7000 ± 2000 nM
- IC50 (HDAC6): > 70000 nM
- IC50 (HDAC1): 22000 ± 5000 nM
- IC50 (HDAC4): 68000 ± 30000 nM
Structure (SMILES): O=C(/C=C/c1ccc(O)c(O)c1)OCCc1ccccc1 [CAPE, caffeic acid phenethyl ester]
- Cytotoxic effect (in words) (HEK293 normal cells): did not show cytotoxic effects

- IC50 (HDAC11 [2]; [8]): 2600 ± 400 nM
Structure (SMILES): O=C(NO)c1ccc(CSc2nc3ccccc3c(=O)n2-c2ccc(Br)cc2)cc1 [9HDA020B07]

- IC50 (HDAC11 [2]; [8]): 2000 ± 200 nM
Structure (SMILES): Cc1ccc(-n2c(SCc3ccc(C(=O)NO)cc3)nc3ccccc3c2=O)cc1 [9HDA020B05]

Structure (SMILES): Oc1c(C(Nc2cccc(C(F)(F)F)c2)c2ccncc2)ccc2cccnc12 (centres unmarked) [9SPC045H03]
- Selectivity for HDAC11 against HDAC8 (HDAC11 [2]; from IC50 values of Table 2): about 3 fold
- Selectivity for HDAC11 with respect to HDACs 1, 4, and 6 (HDAC11 [2]; from IC50 values of Table 2): more than 30 fold
- IC50 (HDAC11 [2]; [8]): 2300 ± 500 nM
- Reversibility of binding to HDAC11 (HDAC11 [3]): reversible binding
- Time-dependence of HDAC11 inhibition (HDAC11 [4]): no time-dependent inhibition
- IC50 (HDAC8): 13000 ± 5000 nM
- IC50 (HDAC6): 67000 nM
- IC50 (HDAC1): > 70000 nM
- Cytotoxic effect (in words) (HEK293 normal cells): moderately toxic effect
- viability at 24 h, 100 µM [5]: 50%
- IC50 (HDAC4): > 70000 nM

Structure (SMILES): N#C/C(=C\c1ccc(O)c(O)c1)C(=O)NCCCc1ccccc1 [9LOP015D09, Tyrphostin AG 555]
- IC50 (HDAC11 [2]; [8]): 4300 ± 3000 nM
- Res. HDAC activity (residual HDAC11 activity) (HDAC11 [1]): 49%

- IC50 (HDAC11 [2]; [8]): 2000 ± 200 nM
Structure (SMILES): Cc1ccc(-n2c(SCc3ccc(C(=O)NO)cc3)nc3ccccc3c2=O)c(C)c1 [9HDA020B08]

Structure (SMILES): N#C/C(=C\c1ccc(O)c(O)c1)C(=O)NCc1ccccc1 [9LOP015E07, Tyrphostin AG 490]
- IC50 (HDAC11 [2]): 14000 ± 3000 nM
- Res. HDAC activity (residual HDAC11 activity) (HDAC11 [1]): 65%

- IC50 (HDAC11 [2]; [8]): > 50000 nM
Structure (SMILES): O=C(CCc1ccccc1)c1c(O)cc(O)cc1O [9SPC036F04]

- IC50 (HDAC11 [2]; [8]): 1100 ± 400 nM
- Res. HDAC activity (residual HDAC11 activity) (HDAC11 [1]): 58%
- IC50 (HDAC6): 200 ± 100 nM
- IC50 (HDAC1): 1400 ± 400 nM
Structure (SMILES): Cc1cccc2nc(SCc3ccc(C(=O)NO)cc3)n(-c3ccccc3)c(=O)c12 [9HDA020C06]

- IC50 (HDAC11 [2]; [8]): 2100 ± 200 nM
Structure (SMILES): O=C(NO)c1ccc(CSc2nc3ccccc3c(=O)n2-c2ccccc2)cc1 [9HDA020B04]

- IC50 (HDAC11 [2]; [8]): 19000 ± 2000 nM
Structure (SMILES): O=C1NC(=O)/C(=C/c2ccc(O)nc2)S1 [9HDA018E08]

- IC50 (HDAC11 [2]; [8]): 1600 ± 300 nM
Structure (SMILES): Cc1cccc(-n2c(SCc3ccc(C(=O)NO)cc3)nc3ccccc3c2=O)c1 [9HDA020B09]

Structure (SMILES): CCCCCCCCCCCCCCCCNNC(=O)c1cccs1 [SIS17]
- Degree of myristoylation of the HDAC11 substrate SHMT2 in cells (HDAC11 [6]): significantly increased
- IC50 (HDAC11 [7]): 850 nM

- IC50 (HDAC11 [2]; [8]): 1600 ± 200 nM
Structure (SMILES): CCc1ccc(-n2c(SCc3ccc(C(=O)NO)cc3)nc3cccc(C)c3c2=O)cc1 [9HDA020B06]

- IC50 (HDAC11 [2]; [8]): 2000 ± 300 nM
Structure (SMILES): O=C(NO)c1ccc(CSc2nc3ccccc3c(=O)n2-c2cccc(Cl)c2)cc1 [9HDA020B10]

- IC50 (HDAC11 [2]; [8]): 1900 ± 400 nM
- IC50 (HDAC8): 6000 ± 1000 nM
- IC50 (HDAC6): 900 ± 300 nM
- IC50 (HDAC1): 2300 ± 500 nM
- IC50 (HDAC4): 900 ± 400 nM
Structure (SMILES): Cc1cccc2nc(SCc3ccc(C(=O)NO)cc3)n(-c3ccc(Cl)cc3)c(=O)c12 [9HDA020C09]

- IC50 (HDAC11 [2]; [8]): 3500 ± 800 nM
Structure (SMILES): Cc1ccccc1-n1c(SCc2ccc(C(=O)NO)cc2)nc2cccc(C)c2c1=O [9HDA020C08]

- IC50 (HDAC11 [2]; [8]): 1500 ± 300 nM
Structure (SMILES): Cc1cccc2nc(SCc3ccc(C(=O)NO)cc3)n(-c3ccccc3F)c(=O)c12 [9HDA020C07]

- IC50 (HDAC11 [2]; [8]): 4100 ± 500 nM
Structure (SMILES): O=C(NO)c1ccc(CSc2nc3ccccc3c(=O)n2-c2ccccc2F)cc1 [9HDA020B11]

- IC50 (HDAC11 [2]; [8]): > 100000 nM
Structure (SMILES): O=C(O)/C=C/c1ccc(O)c(O)c1 [9LOP003E09, caffeic acid]

- IC50 (HDAC11 [2]; [8]): 2000 ± 500 nM
Structure (SMILES): O=C(NO)c1ccc(CSc2nc3cc(Cl)ccc3c(=O)n2-c2ccccc2F)cc1 [9HDA020C04]
